Measured values taken from ChEMBL document CHEMBL1148822, “Principal component analysis differentiates the receptor binding profiles of three antipsychotic drug candidates from current antipsychotic drugs” (J Med Chem, 2007).
Activity calls are given as the source filed them. The calls are words filed in the database; no cut-off is given here.

Legend:
[1] = target: Serotonin 3 (5-HT3) receptor; settings: hek293
Description: Displacement of [3H]BLR-43694 from human 5HT3 receptor expressed in HEK293 cells

[2] = target: Histamine H1 receptor (Cavia porcellus) (UniProt P31389); settings: Cerebellum
Description: (§1) Displacement of [3H]pyrilamine from histaminergic H1 receptor guinea pig cerebellum

[3] = target: T1, 5-hydroxytryptamine receptor 6 (Homo sapiens, UniProt P50406); settings: HEK293
Description: (§2) Displacement of [3H]LSD from human 5HT6 receptor expressed in HEK293 cells

[4] = target: T2, 5-hydroxytryptamine receptor 2C (Homo sapiens) (UniProt P28335); settings: CHO
T2 sequence (whole entry): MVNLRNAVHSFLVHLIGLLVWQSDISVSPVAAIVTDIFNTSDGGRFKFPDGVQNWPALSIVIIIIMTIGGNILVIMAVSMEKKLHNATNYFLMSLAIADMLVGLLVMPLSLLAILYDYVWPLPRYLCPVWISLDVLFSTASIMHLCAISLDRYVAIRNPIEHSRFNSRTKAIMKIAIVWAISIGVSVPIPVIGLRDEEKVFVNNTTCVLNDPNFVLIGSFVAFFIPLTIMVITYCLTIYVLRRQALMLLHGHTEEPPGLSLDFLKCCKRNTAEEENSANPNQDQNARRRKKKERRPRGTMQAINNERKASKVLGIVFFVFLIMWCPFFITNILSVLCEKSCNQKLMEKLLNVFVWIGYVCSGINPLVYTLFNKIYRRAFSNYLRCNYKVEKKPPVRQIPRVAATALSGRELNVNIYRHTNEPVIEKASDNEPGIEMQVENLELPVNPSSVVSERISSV
Description: (§3) Displacement of [3H]mesulergine from 5HT2C receptor expressed in CHO cells

[5] = target: T3, Adrenergic receptor alpha-2 (Rattus norvegicus, UniProt P22086+P19328+P22909)
T3 sequence (P22086 whole entry): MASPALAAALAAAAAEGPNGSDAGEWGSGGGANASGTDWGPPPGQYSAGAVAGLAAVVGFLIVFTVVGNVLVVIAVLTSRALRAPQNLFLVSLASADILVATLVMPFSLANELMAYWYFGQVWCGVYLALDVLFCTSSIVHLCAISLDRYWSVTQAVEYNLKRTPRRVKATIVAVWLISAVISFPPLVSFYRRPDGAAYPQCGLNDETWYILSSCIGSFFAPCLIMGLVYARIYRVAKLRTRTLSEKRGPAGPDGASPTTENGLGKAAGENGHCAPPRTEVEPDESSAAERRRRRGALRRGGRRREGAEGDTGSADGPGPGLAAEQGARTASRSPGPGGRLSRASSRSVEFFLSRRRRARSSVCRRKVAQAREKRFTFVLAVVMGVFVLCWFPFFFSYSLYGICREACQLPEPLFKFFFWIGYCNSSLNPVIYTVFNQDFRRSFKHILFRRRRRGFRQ
T3 sequence (P19328 whole entry): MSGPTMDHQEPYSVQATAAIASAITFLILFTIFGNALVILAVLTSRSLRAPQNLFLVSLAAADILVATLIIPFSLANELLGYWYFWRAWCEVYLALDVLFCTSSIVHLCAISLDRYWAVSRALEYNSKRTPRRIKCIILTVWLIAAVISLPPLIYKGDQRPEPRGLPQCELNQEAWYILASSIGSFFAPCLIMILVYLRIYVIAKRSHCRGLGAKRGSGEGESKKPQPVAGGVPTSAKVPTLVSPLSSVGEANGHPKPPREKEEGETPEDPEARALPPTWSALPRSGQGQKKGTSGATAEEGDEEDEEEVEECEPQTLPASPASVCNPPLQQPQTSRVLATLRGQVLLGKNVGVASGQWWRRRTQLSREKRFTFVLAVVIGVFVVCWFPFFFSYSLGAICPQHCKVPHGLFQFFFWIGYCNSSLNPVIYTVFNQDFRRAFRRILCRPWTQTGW
T3 sequence (P22909 whole entry): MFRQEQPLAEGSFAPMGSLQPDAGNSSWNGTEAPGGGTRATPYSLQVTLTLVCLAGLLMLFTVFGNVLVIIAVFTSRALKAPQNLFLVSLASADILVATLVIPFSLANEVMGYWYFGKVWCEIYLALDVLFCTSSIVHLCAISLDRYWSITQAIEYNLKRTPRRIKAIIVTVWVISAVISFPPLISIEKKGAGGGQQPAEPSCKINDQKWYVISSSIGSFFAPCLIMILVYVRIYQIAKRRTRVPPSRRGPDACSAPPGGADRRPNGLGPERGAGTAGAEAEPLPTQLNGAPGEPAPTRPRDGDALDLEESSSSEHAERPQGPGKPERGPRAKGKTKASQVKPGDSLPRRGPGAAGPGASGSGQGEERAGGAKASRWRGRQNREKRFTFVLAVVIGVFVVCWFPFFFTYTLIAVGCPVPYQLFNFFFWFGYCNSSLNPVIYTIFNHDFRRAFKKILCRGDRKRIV
Description: Displacement of [3H]RX 821002 from adrenergic alpha-2 receptor in rat cerebral cortex

Histamine H1 receptor = Histamine H1 receptor (Cavia porcellus, UniProt P31389); experiment: biochemical
Description: as §1

[6] = target: T1, 5-hydroxytryptamine receptor 6; experiment: biochemical
Description: as §2

D(4) dopamine receptor = target: T4, D(4) dopamine receptor (Homo sapiens, UniProt P21917); experiment: biochemical
T4 sequence (P21917 whole entry): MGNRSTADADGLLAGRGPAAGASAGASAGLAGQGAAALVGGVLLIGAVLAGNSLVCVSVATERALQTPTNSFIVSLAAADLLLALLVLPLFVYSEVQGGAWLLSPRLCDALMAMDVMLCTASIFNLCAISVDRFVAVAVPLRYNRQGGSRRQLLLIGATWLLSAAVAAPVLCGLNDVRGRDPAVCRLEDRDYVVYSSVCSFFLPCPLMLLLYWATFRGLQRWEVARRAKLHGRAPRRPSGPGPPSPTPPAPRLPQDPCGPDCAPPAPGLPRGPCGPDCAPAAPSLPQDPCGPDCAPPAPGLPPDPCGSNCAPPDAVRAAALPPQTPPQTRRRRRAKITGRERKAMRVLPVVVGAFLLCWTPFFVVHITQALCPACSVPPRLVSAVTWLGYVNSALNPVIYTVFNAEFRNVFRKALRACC
Description: Displacement of [3H]spiperone from human dopamine D4.4 receptor expressed in CHO cells

[7] = target: 5-hydroxytryptamine receptor 2A (Homo sapiens, UniProt P28223); experiment: biochemical; format: cell-based, CHO
Description: Displacement of [3H]ketanserin from human 5HT2A receptor expressed in CHO cells

[8] = target: T5, 5-hydroxytryptamine receptor 2B (Homo sapiens, UniProt P41595); experiment: biochemical
Description: (§4) Displacement of [3H]LSD from 5HT2B receptor expressed in CHO cells

[9] = target: T6, 5-hydroxytryptamine receptor 2C (Homo sapiens, UniProt P28335); experiment: biochemical
T6 sequence (P28335 whole entry): T2 sequence (whole entry)
Description: as §3

D(3) dopamine receptor = D(3) dopamine receptor (Homo sapiens, UniProt P35462); experiment: biochemical
Description: Displacement of [3H]spiperone from human dopamine D3 receptor expressed in CHO cells

[10] = target: 5-hydroxytryptamine receptor 7 (Homo sapiens, UniProt P34969); experiment: biochemical
Description: Displacement of [3H]LSD from human 5HT7 receptor expressed in CHO cells

[11] = target: T7, 5-hydroxytryptamine receptor 1A (Homo sapiens, UniProt P08908); experiment: biochemical
T7 sequence (P08908 whole entry): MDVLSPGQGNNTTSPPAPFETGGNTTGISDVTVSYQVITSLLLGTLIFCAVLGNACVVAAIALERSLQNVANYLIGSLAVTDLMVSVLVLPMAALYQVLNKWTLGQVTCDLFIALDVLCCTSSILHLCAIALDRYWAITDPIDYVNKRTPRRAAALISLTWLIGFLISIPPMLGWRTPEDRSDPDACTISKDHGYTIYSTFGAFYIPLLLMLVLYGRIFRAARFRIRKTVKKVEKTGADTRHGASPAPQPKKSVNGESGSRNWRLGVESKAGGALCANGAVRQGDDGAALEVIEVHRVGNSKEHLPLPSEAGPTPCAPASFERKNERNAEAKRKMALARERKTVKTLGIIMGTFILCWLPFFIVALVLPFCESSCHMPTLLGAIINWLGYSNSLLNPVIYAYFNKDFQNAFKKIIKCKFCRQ
Description: Displacement of [3H]8-OH-DPAT from human 5HT1A receptor expressed in CHO cells

[12] = target: Sodium-dependent serotonin transporter (Homo sapiens, UniProt P31645); experiment: biochemical; format: cell-based, HEK293
Description: Displacement of [3H]paraxetine from human 5HT transporter expressed in HEK293 cells

[13] = target: T8, Adrenergic receptor alpha-1 (Rattus norvegicus, UniProt P15823+P23944+P43140)
T8 sequence (P15823 whole entry): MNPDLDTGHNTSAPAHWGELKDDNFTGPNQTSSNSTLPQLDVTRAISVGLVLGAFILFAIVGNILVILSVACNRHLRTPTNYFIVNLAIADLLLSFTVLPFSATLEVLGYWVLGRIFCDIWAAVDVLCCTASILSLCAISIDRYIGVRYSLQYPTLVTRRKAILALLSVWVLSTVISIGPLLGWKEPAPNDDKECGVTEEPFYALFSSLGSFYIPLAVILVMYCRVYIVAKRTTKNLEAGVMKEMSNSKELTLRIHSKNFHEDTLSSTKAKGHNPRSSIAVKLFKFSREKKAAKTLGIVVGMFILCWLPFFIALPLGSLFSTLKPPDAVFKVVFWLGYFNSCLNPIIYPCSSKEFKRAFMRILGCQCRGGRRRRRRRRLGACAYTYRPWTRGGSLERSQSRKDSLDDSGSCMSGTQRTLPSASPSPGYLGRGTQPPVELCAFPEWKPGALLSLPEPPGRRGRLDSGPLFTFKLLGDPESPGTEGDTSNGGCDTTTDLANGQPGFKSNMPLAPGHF
T8 sequence (P23944 whole entry): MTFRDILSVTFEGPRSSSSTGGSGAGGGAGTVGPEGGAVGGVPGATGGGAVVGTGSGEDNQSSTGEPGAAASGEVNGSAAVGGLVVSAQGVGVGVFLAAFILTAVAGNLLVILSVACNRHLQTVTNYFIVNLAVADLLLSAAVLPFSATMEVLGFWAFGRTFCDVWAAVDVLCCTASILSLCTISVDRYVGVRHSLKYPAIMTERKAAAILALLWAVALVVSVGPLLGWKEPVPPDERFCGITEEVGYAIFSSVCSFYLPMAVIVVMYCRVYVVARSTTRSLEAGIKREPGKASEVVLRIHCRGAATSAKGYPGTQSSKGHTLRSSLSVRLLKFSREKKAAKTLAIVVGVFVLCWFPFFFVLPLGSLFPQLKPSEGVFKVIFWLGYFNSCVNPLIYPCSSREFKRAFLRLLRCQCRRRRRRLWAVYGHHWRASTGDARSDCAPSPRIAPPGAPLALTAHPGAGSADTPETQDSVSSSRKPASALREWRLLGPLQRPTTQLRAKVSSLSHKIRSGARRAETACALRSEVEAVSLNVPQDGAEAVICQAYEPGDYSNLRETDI
T8 sequence (P43140 whole entry): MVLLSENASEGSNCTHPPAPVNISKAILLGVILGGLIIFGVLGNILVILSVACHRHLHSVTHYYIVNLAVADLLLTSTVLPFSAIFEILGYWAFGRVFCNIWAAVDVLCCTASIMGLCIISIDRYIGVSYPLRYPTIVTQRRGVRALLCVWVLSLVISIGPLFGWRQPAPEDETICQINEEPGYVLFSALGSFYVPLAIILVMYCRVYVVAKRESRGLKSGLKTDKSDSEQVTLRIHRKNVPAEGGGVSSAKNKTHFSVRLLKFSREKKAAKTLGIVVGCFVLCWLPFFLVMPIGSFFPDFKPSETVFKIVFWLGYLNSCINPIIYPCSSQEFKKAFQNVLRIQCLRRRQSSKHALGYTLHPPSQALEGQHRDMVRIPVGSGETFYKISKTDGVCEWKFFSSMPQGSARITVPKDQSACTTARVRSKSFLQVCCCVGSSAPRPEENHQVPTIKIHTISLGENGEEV
Description: Displacement of [3H]prazosin from adrenergic alpha1 receptor in rat cerebral cortex

[14] = target: T5, 5-hydroxytryptamine receptor 2B; settings: CHO
Description: as §4

5-hydroxytryptamine receptor 7, sequence (P34969 whole entry): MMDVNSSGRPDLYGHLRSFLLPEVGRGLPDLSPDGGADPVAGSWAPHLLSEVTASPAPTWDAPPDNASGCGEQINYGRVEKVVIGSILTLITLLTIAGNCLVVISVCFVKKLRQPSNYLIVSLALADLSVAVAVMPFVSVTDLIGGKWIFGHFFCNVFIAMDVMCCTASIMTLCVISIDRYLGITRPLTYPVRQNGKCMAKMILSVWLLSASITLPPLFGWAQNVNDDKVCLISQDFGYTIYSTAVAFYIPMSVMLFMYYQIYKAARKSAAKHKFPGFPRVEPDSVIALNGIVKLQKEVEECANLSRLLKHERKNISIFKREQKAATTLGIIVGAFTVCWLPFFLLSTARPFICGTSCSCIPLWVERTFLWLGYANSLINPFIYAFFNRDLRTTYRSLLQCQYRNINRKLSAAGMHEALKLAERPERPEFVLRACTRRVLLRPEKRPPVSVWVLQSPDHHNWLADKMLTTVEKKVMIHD
T5 sequence (P41595 whole entry): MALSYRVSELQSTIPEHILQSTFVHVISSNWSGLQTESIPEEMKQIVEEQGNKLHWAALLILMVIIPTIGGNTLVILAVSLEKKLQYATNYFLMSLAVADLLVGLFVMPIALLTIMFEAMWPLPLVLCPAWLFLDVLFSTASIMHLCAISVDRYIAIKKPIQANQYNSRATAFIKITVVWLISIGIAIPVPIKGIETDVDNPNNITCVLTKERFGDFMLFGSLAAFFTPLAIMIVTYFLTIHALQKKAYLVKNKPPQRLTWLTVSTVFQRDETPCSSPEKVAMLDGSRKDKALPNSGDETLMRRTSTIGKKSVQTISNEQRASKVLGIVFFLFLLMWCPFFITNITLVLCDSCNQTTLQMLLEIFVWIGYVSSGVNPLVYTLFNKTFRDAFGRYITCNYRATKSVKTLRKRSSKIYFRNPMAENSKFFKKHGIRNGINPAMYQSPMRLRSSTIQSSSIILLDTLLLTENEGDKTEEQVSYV
Histamine H1 receptor, sequence (P31389 whole entry): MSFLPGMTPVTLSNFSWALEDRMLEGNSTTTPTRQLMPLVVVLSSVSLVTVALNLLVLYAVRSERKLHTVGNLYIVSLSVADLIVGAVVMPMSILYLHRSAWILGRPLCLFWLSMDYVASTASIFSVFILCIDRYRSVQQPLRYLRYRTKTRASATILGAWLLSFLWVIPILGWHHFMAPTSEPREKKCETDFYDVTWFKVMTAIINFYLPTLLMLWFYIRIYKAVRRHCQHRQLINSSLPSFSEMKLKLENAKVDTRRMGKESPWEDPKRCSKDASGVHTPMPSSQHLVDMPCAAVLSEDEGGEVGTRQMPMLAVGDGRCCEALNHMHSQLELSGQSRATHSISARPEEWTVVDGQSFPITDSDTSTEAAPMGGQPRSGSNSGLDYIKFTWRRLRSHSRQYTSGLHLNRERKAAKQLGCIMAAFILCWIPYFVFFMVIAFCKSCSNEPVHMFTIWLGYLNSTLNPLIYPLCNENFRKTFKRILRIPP
T1 sequence (P50406 whole entry): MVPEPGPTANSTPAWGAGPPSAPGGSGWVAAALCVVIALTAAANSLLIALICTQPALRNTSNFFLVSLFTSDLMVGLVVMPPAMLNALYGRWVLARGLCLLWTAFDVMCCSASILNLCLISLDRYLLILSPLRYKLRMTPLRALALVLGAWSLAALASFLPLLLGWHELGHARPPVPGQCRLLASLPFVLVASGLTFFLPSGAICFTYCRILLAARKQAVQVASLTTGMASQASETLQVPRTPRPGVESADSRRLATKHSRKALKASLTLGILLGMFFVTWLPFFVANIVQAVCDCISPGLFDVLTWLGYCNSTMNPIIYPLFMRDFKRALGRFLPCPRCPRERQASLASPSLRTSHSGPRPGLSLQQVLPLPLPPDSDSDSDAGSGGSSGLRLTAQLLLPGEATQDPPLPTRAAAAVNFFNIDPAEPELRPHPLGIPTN
Histamine H1 receptor (Cavia porcellus), sequence (P31389 whole entry): as the sequence (P31389 whole entry) above
D(3) dopamine receptor, sequence (P35462 whole entry): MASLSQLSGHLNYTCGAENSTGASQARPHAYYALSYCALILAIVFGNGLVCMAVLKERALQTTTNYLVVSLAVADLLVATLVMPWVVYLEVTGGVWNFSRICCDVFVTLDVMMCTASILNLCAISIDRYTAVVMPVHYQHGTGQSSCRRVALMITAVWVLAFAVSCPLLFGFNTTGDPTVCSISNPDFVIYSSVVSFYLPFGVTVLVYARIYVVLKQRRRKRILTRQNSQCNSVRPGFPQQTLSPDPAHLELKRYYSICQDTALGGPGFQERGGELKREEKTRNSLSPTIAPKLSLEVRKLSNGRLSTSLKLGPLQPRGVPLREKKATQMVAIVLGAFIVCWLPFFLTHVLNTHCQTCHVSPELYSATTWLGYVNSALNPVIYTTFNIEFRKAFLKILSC
Sodium-dependent serotonin transporter, sequence (P31645 whole entry): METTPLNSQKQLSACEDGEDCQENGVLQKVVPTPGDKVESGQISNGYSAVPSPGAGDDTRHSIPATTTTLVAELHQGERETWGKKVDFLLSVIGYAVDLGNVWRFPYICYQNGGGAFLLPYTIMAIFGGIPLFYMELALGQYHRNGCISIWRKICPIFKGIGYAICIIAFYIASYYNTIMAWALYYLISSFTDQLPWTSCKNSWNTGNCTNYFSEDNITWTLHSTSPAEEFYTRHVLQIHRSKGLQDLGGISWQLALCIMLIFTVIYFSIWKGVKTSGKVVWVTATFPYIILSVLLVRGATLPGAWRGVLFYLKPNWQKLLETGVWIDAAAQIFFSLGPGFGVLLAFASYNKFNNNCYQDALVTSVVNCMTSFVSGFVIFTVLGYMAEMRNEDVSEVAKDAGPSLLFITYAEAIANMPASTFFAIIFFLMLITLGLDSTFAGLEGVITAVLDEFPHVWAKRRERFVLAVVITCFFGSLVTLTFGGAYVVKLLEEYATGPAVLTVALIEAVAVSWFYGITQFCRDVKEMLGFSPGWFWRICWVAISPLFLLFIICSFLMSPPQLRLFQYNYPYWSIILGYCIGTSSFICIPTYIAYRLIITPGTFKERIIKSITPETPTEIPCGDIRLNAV
5-hydroxytryptamine receptor 2A, sequence (P28223 whole entry): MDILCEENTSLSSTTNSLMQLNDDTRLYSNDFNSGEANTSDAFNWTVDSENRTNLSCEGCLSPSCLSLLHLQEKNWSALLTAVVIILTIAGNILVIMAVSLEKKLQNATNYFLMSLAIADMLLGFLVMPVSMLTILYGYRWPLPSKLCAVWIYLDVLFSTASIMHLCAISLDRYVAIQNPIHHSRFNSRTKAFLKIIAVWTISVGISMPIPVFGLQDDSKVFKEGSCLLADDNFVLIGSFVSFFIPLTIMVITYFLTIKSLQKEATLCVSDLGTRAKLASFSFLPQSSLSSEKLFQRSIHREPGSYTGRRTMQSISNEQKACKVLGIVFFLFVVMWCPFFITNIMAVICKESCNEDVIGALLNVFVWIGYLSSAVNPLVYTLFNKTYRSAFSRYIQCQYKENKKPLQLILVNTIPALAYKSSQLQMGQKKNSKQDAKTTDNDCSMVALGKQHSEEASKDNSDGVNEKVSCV

| SMILES | Activity [3] | Activity [4] | Ki (Histamine H1 receptor) [nM] | Ki [8] [nM] | Ki [10] [nM] | Ki [11] [nM] | Log Ki [13] | further results |
| --- | --- | --- | --- | --- | --- | --- | --- | --- |
| Cc1cc2c(s1)Nc1ccccc1N=C2N1CCN(C)CC1 [OLANZAPINE] | – | – | – | – | – | – | – | Log Ki [1]: -6.7 |
| CCN1CCCC1CNC(=O)c1cc(S(=O)(=O)CC)c(N)cc1OC (stereo not given) [AMISULPRIDE] | inactive | inactive | – | – | – | – | – | Activity [2]: inactive; Log Ki [5]: -6.9 |
| O=C1c2ccccc2C(=O)N1CCCCN1CC=C(c2c[nH]c3ccc(F)cc23)CC1 | – | – | 31.6 | 1.58 | 100 | 2.51 | – | Ki [6]: 398 nM; Ki (D(4) dopamine receptor): 79.4 nM; Ki [7]: 100 nM; Ki [9]: 39.8 nM; Ki (D(3) dopamine receptor): 0.794 nM; Log Ki [5]: -6.6; Ki [12]: 0.794 nM |
| C[C@H]1Oc2c(cccc2N2CCN(CCCc3c[nH]c4ccc(F)cc34)CC2)NC1=O | inactive | – | 126 | 1 | 7.94 | 5.01 | -7.8 | Ki (D(4) dopamine receptor): 1.58 nM; Ki [7]: 20 nM; Ki [9]: 200 nM; Ki (D(3) dopamine receptor): 0.501 nM; Ki [12]: 0.251 nM |
| O=C1Cc2cc(CCN3CCN(c4nsc5ccccc45)CC3)c(Cl)cc2N1 [ZIPRASIDONE] | – | – | 15.8 | 1.58 | 5.01 | 1.58 | -8.1 | Ki [6]: 63.1 nM; Log Ki [1]: -6.4 |
| Cc1nc2n(c(=O)c1CCN1CCC(c3noc4cc(F)ccc34)CC1)CCCC2 | inactive | – | – | – | – | – | – | – |
| OCCOCCN1CCN(C2=Nc3ccccc3Sc3ccccc32)CC1 [QUETIAPINE] | inactive | inactive | – | – | – | – | – | – |
| Fc1ccc(-c2cncc(CN3CCN(c4cccc5c4OCCO5)CC3)c2)cc1 [ADOPRAZINE] | inactive | inactive | – | 12.6 | – | – | -6.3 | Activity [2]: inactive |
| O=C(CCCN1CCC(O)(c2ccc(Cl)cc2)CC1)c1ccc(F)cc1 | inactive | inactive | – | – | – | – | – | Activity [14]: inactive |
